PubChem BioAssay AID1963977 (Molecular Pharmacology Branch, DTP, NCI, 2024)

Test system: 624824-186-R-J3-PDC multicell spheroids, viability
Experiment: Anticancer human tumor 624824-186-R-J3-PDC patient-derived colon adenocarcinoma cell line growth inhibition [PI3K]
Conditions: for IC50: curve of first compound; for viability, T/C: stronger effect = lower value
Method in brief: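 Complex 3D spheroids (cancer cells + endothelial HUVEC + mesenchymal stem cells); drug pairs of targeted agent x inavolisib/alpelisib/duvelisib/copanlisib; half-log series from ~Cmax, max 10 microM if Cmax unknown; endpoint viability.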

[1] = second compound 0.00316 µM, first compound 0.0316 µM
[2] = second compound 0.00316 µM, first compound 0.1 µM
[3] = second compound 0.01 µM, first compound 0.0316 µM
[4] = second compound 0.01 µM, first compound 0.1 µM
[5] = second compound 0.0316 µM, first compound 0.0316 µM
[6] = second compound 0.0316 µM, first compound 0.1 µM
[7] = second compound 0.1 µM, first compound 0.0316 µM
[8] = second compound 0.1 µM, first compound 0.1 µM
[9] = second compound 0.316 µM, first compound 0.0316 µM
[10] = second compound 0.316 µM, first compound 0.1 µM
[11] = second compound 1 µM, first compound 0.0316 µM
[12] = second compound 1 µM, first compound 0.1 µM
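Further: spheroids exposed to agents for seven days before luminescence read.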
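Wherever viability, T/C is given: luminescent signal used as a stand-in for spheroid viability; percent viability relative to DMSO vehicle control wells taken as 100%.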

Work on CC(=O)c1c(C)c2cnc(Nc3ccc(N4CCNCC4)cn3)nc2n(C2CCCC2)c1=O + COc1c(OCCCN2CCOCC2)ccc2c3n(c(=NC(=O)c4cnc(N)nc4)nc12)CCN3 yielded an IC50 (second compound 0.00316 µM) greater than 0.1 µM, an IC50 (second compound 0.01 µM) greater than 0.1 µM and an IC50 (second compound 0.0316 µM) greater than 0.1 µM. For the same compound, the IC50 (second compound 0.1 µM) was 0.093 µM, the IC50 (second compound 0.316 µM) was 0.000852 µM and the IC50 (second compound 1 µM) was less than 0.000316 µM. It also gave a viability, T/C (second compound 0.00316 µM, first compound 0.000316 µM) of 99.3%, a viability, T/C (second compound 0.00316 µM, first compound 0.001 µM) of 97.3% and a viability, T/C (second compound 0.00316 µM, first compound 0.00316 µM) of 107%. For the same compound, the viability, T/C (second compound 0.00316 µM, first compound 0.01 µM) was 96.7%, the viability, T/C [1] was 93% and the viability, T/C [2] was 108%. It also gave a viability, T/C (second compound 0.01 µM, first compound 0.000316 µM) of 104%, a viability, T/C (second compound 0.01 µM, first compound 0.001 µM) of 103% and a viability, T/C (second compound 0.01 µM, first compound 0.00316 µM) of 104%. It also gave a viability, T/C (second compound 0.01 µM, first compound 0.01 µM) of 105%, a viability, T/C [3] of 98.8% and a viability, T/C [4] of 116%. The viability, T/C (second compound 0.0316 µM, first compound 0.000316 µM) was 90.9%, the viability, T/C (second compound 0.0316 µM, first compound 0.001 µM) was 106% and the viability, T/C (second compound 0.0316 µM, first compound 0.00316 µM) was 86.6%. The viability, T/C (second compound 0.0316 µM, first compound 0.01 µM) was 87.3%, the viability, T/C [5] was 93.7% and the viability, T/C [6] was 80.4%. For the same compound, the viability, T/C (second compound 0.1 µM, first compound 0.000316 µM) was 75.1%, the viability, T/C (second compound 0.1 µM, first compound 0.001 µM) was 75.8% and the viability, T/C (second compound 0.1 µM, first compound 0.00316 µM) was 74.4%. It also gave a viability, T/C (second compound 0.1 µM, first compound 0.01 µM) of 74%, a viability, T/C [7] of 70.5% and a viability, T/C [8] of 48.6%. It also gave a viability, T/C (second compound 0.316 µM, first compound 0.000316 µM) of 52.9%, a viability, T/C (second compound 0.316 µM, first compound 0.001 µM) of 46.5% and a viability, T/C (second compound 0.316 µM, first compound 0.00316 µM) of 49.9%. It also gave a viability, T/C (second compound 0.316 µM, first compound 0.01 µM) of 40.2%, a viability, T/C [9] of 35.6% and a viability, T/C [10] of 26.4%. It also gave a viability, T/C (second compound 1 µM, first compound 0.000316 µM) of 27.6%, a viability, T/C (second compound 1 µM, first compound 0.001 µM) of 32% and a viability, T/C (second compound 1 µM, first compound 0.00316 µM) of 28.3%. For the same compound, the viability, T/C (second compound 1 µM, first compound 0.01 µM) was 26.7%, the viability, T/C [11] was 21.5% and the viability, T/C [12] was 19.7%.
With CNC(=O)c1ccc(N2C(=S)N(c3ccc(C#N)c(C(F)(F)F)c3)C(=O)C2(C)C)cc1F + COc1c(OCCCN2CCOCC2)ccc2c3n(c(=NC(=O)c4cnc(N)nc4)nc12)CCN3 the IC50 (second compound 0.00316 µM) was greater than 10 µM, the IC50 (second compound 0.01 µM) was greater than 10 µM and the IC50 (second compound 0.0316 µM) was greater than 10 µM. For the same compound, the IC50 (second compound 0.1 µM) was greater than 10 µM, the IC50 (second compound 0.316 µM) was less than 0.0316 µM and the IC50 (second compound 1 µM) was less than 0.0316 µM. For the same compound, the viability, T/C [1] was 116%, the viability, T/C [2] was 92.3% and the viability, T/C (second compound 0.00316 µM, first compound 0.316 µM) was 114%. For the same compound, the viability, T/C (second compound 0.00316 µM, first compound 1 µM) was 103%, the viability, T/C (second compound 0.00316 µM, first compound 3.16 µM) was 105% and the viability, T/C (second compound 0.00316 µM, first compound 10 µM) was 107%. The viability, T/C [3] was 102%, the viability, T/C [4] was 94.5% and the viability, T/C (second compound 0.01 µM, first compound 0.316 µM) was 101%. It also gave a viability, T/C (second compound 0.01 µM, first compound 1 µM) of 94%, a viability, T/C (second compound 0.01 µM, first compound 3.16 µM) of 104% and a viability, T/C (second compound 0.01 µM, first compound 10 µM) of 98%. For the same compound, the viability, T/C [5] was 91.1%, the viability, T/C [6] was 102% and the viability, T/C (second compound 0.0316 µM, first compound 0.316 µM) was 91.2%. For the same compound, the viability, T/C (second compound 0.0316 µM, first compound 1 µM) was 93.2%, the viability, T/C (second compound 0.0316 µM, first compound 3.16 µM) was 88.9% and the viability, T/C (second compound 0.0316 µM, first compound 10 µM) was 88.8%. For the same compound, the viability, T/C [7] was 78%, the viability, T/C [8] was 74.5% and the viability, T/C (second compound 0.1 µM, first compound 0.316 µM) was 89.4%. It also gave a viability, T/C (second compound 0.1 µM, first compound 1 µM) of 71.8%, a viability, T/C (second compound 0.1 µM, first compound 3.16 µM) of 73% and a viability, T/C (second compound 0.1 µM, first compound 10 µM) of 72.5%. It also gave a viability, T/C [9] of 49.2%, a viability, T/C [10] of 50.8% and a viability, T/C (second compound 0.316 µM, first compound 0.316 µM) of 47.5%. The viability, T/C (second compound 0.316 µM, first compound 1 µM) was 48.5%, the viability, T/C (second compound 0.316 µM, first compound 3.16 µM) was 47.6% and the viability, T/C (second compound 0.316 µM, first compound 10 µM) was 34.1%. The viability, T/C [11] was 26.7%, the viability, T/C [12] was 31% and the viability, T/C (second compound 1 µM, first compound 0.316 µM) was 26.7%. It also gave a viability, T/C (second compound 1 µM, first compound 1 µM) of 27.5%, a viability, T/C (second compound 1 µM, first compound 3.16 µM) of 26.2% and a viability, T/C (second compound 1 µM, first compound 10 µM) of 23.9%.
Cn1cnc2c(F)c(Nc3ccc(Br)cc3Cl)c(C(=O)NOCCO)cc21 + COc1c(OCCCN2CCOCC2)ccc2c3n(c(=NC(=O)c4cnc(N)nc4)nc12)CCN3 was tested, and the IC50 (second compound 0.00316 µM) was 0.854 µM, the IC50 (second compound 0.01 µM) was 0.582 µM and the IC50 (second compound 0.0316 µM) was 0.189 µM. It also gave an IC50 (second compound 0.1 µM) of 0.0474 µM, an IC50 (second compound 0.316 µM) of less than 0.00949 µM and an IC50 (second compound 1 µM) of less than 0.00949 µM. The viability, T/C (second compound 0.00316 µM, first compound 0.00949 µM) was 102%, the viability, T/C (second compound 0.00316 µM, first compound 0.03 µM) was 95.9% and the viability, T/C (second compound 0.00316 µM, first compound 0.0949 µM) was 102%. It also gave a viability, T/C (second compound 0.00316 µM, first compound 0.3 µM) of 87.8%, a viability, T/C (second compound 0.00316 µM, first compound 0.949 µM) of 46.3% and a viability, T/C (second compound 0.00316 µM, first compound 3 µM) of 31.4%. The viability, T/C (second compound 0.01 µM, first compound 0.00949 µM) was 108%, the viability, T/C (second compound 0.01 µM, first compound 0.03 µM) was 88.4% and the viability, T/C (second compound 0.01 µM, first compound 0.0949 µM) was 86.4%. It also gave a viability, T/C (second compound 0.01 µM, first compound 0.3 µM) of 65.5%, a viability, T/C (second compound 0.01 µM, first compound 0.949 µM) of 37.1% and a viability, T/C (second compound 0.01 µM, first compound 3 µM) of 18.4%. For the same compound, the viability, T/C (second compound 0.0316 µM, first compound 0.00949 µM) was 88.9%, the viability, T/C (second compound 0.0316 µM, first compound 0.03 µM) was 89.6% and the viability, T/C (second compound 0.0316 µM, first compound 0.0949 µM) was 67.4%. It also gave a viability, T/C (second compound 0.0316 µM, first compound 0.3 µM) of 37.7%, a viability, T/C (second compound 0.0316 µM, first compound 0.949 µM) of 18.2% and a viability, T/C (second compound 0.0316 µM, first compound 3 µM) of 11.2%. The viability, T/C (second compound 0.1 µM, first compound 0.00949 µM) was 75.2%, the viability, T/C (second compound 0.1 µM, first compound 0.03 µM) was 57.9% and the viability, T/C (second compound 0.1 µM, first compound 0.0949 µM) was 38.5%. The viability, T/C (second compound 0.1 µM, first compound 0.3 µM) was 21%, the viability, T/C (second compound 0.1 µM, first compound 0.949 µM) was 13.5% and the viability, T/C (second compound 0.1 µM, first compound 3 µM) was 5.3%. For the same compound, the viability, T/C (second compound 0.316 µM, first compound 0.00949 µM) was 43.3%, the viability, T/C (second compound 0.316 µM, first compound 0.03 µM) was 28.9% and the viability, T/C (second compound 0.316 µM, first compound 0.0949 µM) was 17.9%. It also gave a viability, T/C (second compound 0.316 µM, first compound 0.3 µM) of 9.77%, a viability, T/C (second compound 0.316 µM, first compound 0.949 µM) of 4.7% and a viability, T/C (second compound 0.316 µM, first compound 3 µM) of 1.14%. For the same compound, the viability, T/C (second compound 1 µM, first compound 0.00949 µM) was 22.7%, the viability, T/C (second compound 1 µM, first compound 0.03 µM) was 16% and the viability, T/C (second compound 1 µM, first compound 0.0949 µM) was 10.1%. The viability, T/C (second compound 1 µM, first compound 0.3 µM) was 8.08%, the viability, T/C (second compound 1 µM, first compound 0.949 µM) was 3.21% and the viability, T/C (second compound 1 µM, first compound 3 µM) was 1.3%.
